One compound from publication PMC4710608 (Environmental Health Perspectives, 2015) can be followed below.

The target in assay [1] is T1, PPARγ (Homo sapiens, UniProt P37231).
T1 construct: gene PPARG
T1 sequence (P37231 231-505 limits assumed): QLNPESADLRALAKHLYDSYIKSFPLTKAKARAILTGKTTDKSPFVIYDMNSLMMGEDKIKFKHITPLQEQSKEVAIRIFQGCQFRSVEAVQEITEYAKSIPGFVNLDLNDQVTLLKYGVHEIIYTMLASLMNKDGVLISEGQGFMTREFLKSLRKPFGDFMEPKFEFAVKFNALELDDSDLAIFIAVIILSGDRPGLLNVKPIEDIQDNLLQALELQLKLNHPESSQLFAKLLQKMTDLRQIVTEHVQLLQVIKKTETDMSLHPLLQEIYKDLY
Kind of assay: competitive TR-FRET binding assay (terbium donor, Fluormone Green tracer displacement). A general note: TR-FRET usually uses a lanthanide donor and a delayed reading to cut background.

Assay [2] addresses T2, PPARγ (Mus musculus, UniProt P37238).
T2 construct: gene Pparg
T2 sequence (P37238 193-505): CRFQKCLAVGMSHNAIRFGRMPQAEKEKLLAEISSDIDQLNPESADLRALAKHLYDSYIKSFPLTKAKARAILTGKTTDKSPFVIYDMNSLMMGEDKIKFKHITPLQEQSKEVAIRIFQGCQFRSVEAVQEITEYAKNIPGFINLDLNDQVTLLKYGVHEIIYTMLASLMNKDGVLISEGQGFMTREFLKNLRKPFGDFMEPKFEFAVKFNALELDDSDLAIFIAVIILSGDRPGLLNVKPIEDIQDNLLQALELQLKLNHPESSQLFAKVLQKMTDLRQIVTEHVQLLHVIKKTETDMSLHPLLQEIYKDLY
The assay can be described thus: GAL4-UAS luciferase transactivation assay in HEK293T/[…] cells. The class given is cell-based.

As for `CCCCC(CC)COC(=O)CC(C(=O)OCC(CC)CCCC)S(=O)(=O)O` (centres unmarked) [DOSS], at PPARγ [1], the Kd stood at 1380 nM. On PPARγ [2], the “GAL4-UAS luciferase transactivation assay in HEK293T/17 cells” value is “DOSS alone elicited dose-dependent increases in PPARγ-driven luciferase expression in the low ppm range”.

Usually Kd stands for the equilibrium constant for the complex coming apart.
